Data on one compound can be found in ChEMBL document CHEMBL6127139, “Lysine-Targeted Covalent Inhibitors of PI3Kδ Synthesis and Screening by In Situ Interaction Upgradation” (J Med Chem, 2024).

Data set [1] is described as follows: Chemical reactivity of the compound with N-Boc-Lysine assessed as half-life at 1 uM by HPLC analysis. The class given is physicochemical. Particulars: incubation with N-Boc-Lysine.
For data set [2], the system named is SU-DHL-6. Briefly: Induction of apoptosis in human SU-DHL-6 cells assessed as viable cells at 1 uM incubated for 48 hrs by Annexin V-FITC/PI staining based flow cytometric analysis (reference value: 89.81 %). Particulars: read-out: Activity. The format is functional. On the technique in general: A flow cytometer gives signals particle by particle.
The nature of data set [3]: Stability of compound in water/acetonitrile solution incubated for 24 hrs by HPLC analysis. The format is physicochemical. Particulars: buffer.
Data set [4] has as its system SU-DHL-6. In words: Antitumor activity against human SU-DHL-6 cells xenografted in male nude mouse assessed as tumor growth inhibition at 30 mg/kg/day, po administered for 14 days relative to control. The format is functional. Conditions: SU-DHL-6, 336 h, time 14 day, read-out: TGI.
In data set [5] the test system is SU-DHL-6. In words: Induction of apoptosis in human SU-DHL-6 cells assessed as early apoptotic cells at 1 uM incubated for 48 hrs by Annexin V-FITC/PI staining based flow cytometric analysis (reference value: 5.02 %). The class given is functional.
In data set [6] the test system is SU-DHL-6. Briefly: Inhibition of AKT phosphorylation in human SU-DHL-6 cells incubated for 24 hrs by Western blot analysis. The class given is cell-based. Particulars: dose 10-1000 nM. (In western blotting, separated proteins are transferred to a membrane and probed.)
The subject of data set [7] is SU-DHL-6. In words: Induction of apoptosis in human SU-DHL-6 cells assessed as necrotic cells at 0.1 uM incubated for 48 hrs by Annexin V-FITC/PI staining based flow cytometric analysis (reference value: 1.05 %). The format is functional.
The subject of data set [8] is SU-DHL-6. Briefly: Antitumor activity against human SU-DHL-6 cells xenografted in male nude mouse assessed as tumor growth inhibition at 5 mg/kg/day, po administered for 14 days relative to control. The class given is functional. Conditions: SU-DHL-6, 336 h, time 14 day, read-out: TGI. On the technique in general: In xenograft studies the graft and the host belong to different species.

The test system of data set [9] is SU-DHL-6. Briefly: Antiproliferative activity against human SU-DHL-6 cells assessed as inhibition of cell viability preincubated for 12 hrs followed by compound washout and measured after 60 hrs by MTT assay. The format is functional, cell-based.
In data set [10] the test system is Pfeiffer. Briefly: Antitumor activity against human Pfeiffer cells xenografted in male nude mouse assessed as tumor growth inhibition at 5 mg/kg/day, po administered for 14 days relative to control. The format is functional. Conditions: 336 h, time 14 day, read-out: TGI.
The test system of data set [11] is HCT-116. Briefly: Growth inhibition of human HCT-116 cells incubated for 72 hrs by MTT assay. The class given is functional.
The subject of data set [12] is SU-DHL-6. In words: Induction of apoptosis in human SU-DHL-6 cells assessed as early apoptotic cells at 0.1 uM incubated for 48 hrs by Annexin V-FITC/PI staining based flow cytometric analysis (reference value: 5.02 %). The class given is functional.
Data set [13] can be described thus: Stability of compound in PBS at pH 7.4 incubated for 24 hrs at 37 degreeC by HPLC analysis. The class given is physicochemical. Conditions: buffer, pH 7.4, 24 h.
Data set [14] deals with MCF7. In words: Growth inhibition of human MCF7 cells incubated for 72 hrs by MTT assay. The format is functional.
The nature of data set [15]: Selectivity ratio of GI50 for human HCT-116 cells to GI50 for PI3Kdelta overexpressing human SU-DHL-6. The class given is functional.
The test system of data set [16] is SU-DHL-6. In words: Irreversible inhibition of AKT phosphorylation in human SU-DHL-6 cells preincubated for 12 hrs followed by compound washout and measured upto 72 hrs by Western blot analysis. The format is cell-based.
For data set [17], the system named is SU-DHL-6. In words: Antitumor activity against human SU-DHL-6 cells xenografted in male nude mouse assessed as reduction in Ki67 expression in tumor at 5 to 30 mg/kg/day, po administered for 14 days by immunohistochemical staining based analysis. The format is functional, organism-based. Conditions: dose 5-30 mg/kg/day, time 14.0 day.
Data set [18] in a line: Toxicity in male nude mouse xenografted with human Pfeiffer cells assessed as change in body weight at 5 to 30 mg/kg/day, po administered for 14 days. The class given is organism-based. Conditions: in vivo, 336 h, dose 5-30 mg/kg/day, time 14 day.
Data set [19] deals with T1, Phosphatidylinositol 4,5-bisphosphate 3-kinase catalytic subunit delta isoform (Homo sapiens) (UniProt O00329).
T1 sequence (whole entry): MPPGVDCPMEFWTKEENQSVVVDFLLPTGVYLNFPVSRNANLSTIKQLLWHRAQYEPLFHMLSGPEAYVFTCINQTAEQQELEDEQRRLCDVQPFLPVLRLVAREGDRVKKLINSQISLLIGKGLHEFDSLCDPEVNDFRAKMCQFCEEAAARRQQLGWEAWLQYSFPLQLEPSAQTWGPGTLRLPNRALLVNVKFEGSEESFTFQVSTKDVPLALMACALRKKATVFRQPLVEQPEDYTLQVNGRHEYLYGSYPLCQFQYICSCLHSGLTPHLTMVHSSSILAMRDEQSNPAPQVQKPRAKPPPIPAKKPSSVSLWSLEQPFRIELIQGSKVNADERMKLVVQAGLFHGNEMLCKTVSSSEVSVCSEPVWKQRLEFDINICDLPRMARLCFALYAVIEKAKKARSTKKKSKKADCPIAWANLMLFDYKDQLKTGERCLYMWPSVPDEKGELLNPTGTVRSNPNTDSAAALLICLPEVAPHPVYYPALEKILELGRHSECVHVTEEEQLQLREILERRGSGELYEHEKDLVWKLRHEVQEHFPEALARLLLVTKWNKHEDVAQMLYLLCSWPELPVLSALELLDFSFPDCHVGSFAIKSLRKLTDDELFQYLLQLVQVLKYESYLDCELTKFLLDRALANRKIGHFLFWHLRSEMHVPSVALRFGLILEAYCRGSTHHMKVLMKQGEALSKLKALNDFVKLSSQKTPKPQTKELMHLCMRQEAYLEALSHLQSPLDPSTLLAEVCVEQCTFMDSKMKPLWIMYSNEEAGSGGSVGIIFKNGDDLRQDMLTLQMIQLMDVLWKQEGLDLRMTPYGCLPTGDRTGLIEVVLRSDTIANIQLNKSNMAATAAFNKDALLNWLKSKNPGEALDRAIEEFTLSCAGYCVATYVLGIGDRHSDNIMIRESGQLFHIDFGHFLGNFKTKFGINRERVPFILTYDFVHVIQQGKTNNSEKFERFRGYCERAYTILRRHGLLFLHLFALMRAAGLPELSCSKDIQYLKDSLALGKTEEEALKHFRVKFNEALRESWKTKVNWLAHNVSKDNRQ
Briefly: Binding affinity to PI3Kdelta in human SU-DHL-6 cells preincubated for 1 hrs followed by (S)-phenyl 5-(4-((1-(1-(3-azidopropanoyl)piperidine-4-carbonyl)pyrrolidin-3-yl)amino)pyrido[3,2-d]pyrimidin-6-yl)-2-methoxynicotinate addition and measured after 2 hrs by DBCO-Cy3 based SDS-PAGE analysis. The format is cell-based. Particulars: time 3.0 hrs.

Data set [20] in a line: Selectivity index, ratio of IC50 for inhibition of recombinant PI3Kgamma (unknown origin) using PIP2:3PS as substrate to IC50 for inhibition of recombinant PI3Kdelta (unknown origin) using PIP2:3PS as substrate.
A short description of data set [21]: Selectivity index, ratio of IC50 for inhibition of recombinant PI3Kbeta (unknown origin) using PIP2:3PS as substrate to IC50 for inhibition of recombinant PI3Kdelta (unknown origin) using PIP2:3PS as substrate.
Data set [22] in a line: Selectivity index, ratio of IC50 for inhibition of recombinant PI3Kalpha (unknown origin) using PIP2:3PS as substrate to IC50 for inhibition of recombinant PI3Kdelta (unknown origin) using PIP2:3PS as substrate.
Data set [23] deals with SU-DHL-6. In words: Induction of apoptosis in human SU-DHL-6 cells assessed as late apoptotic cells at 0.1 uM incubated for 48 hrs by Annexin V-FITC/PI staining based flow cytometric analysis (reference value: 4.12 %). The class given is functional.

Activity calls are given as the source filed them. The calls are words filed in the database; no cut-off is given here. Where only a bound is given, the exact number is not on record here.

The half-life is how long it takes for the measured level to halve. In general, GI50 refers to the concentration that inhibits growth by half. With `COc1ncc(-c2ccc3ncnc(N[C@H]4CCN(C(=O)C5CCOCC5)C4)c3n2)cc1C(=O)Oc1ccccc1`, the half-life at 1 µM in [1] was determined as 2.82 h. Also, the viability at 1 µM in data set [2] was 14.2%. Moreover, the Stability result in data set [3] and in data set [13] was “Stable” each time. Further, the inhibition in vivo at 30 mg/kg/day in data set [4] stood at 95%. Moreover, the Activity in [5] is on record as 63.74%; in data set [7], 0.92%; in data set [12], 17.68%; in data set [18] it was “Non-Toxic”; in [23], 15.06%. For the same compound, in [6], the inhibition result was “Dose-Dependent Effect”. In addition, the results for the inhibition in vivo at 5 mg/kg/day in data set [8] and in data set [10] were 84% and 44%, respectively. Also, the result in [9], in data set [17] and in [19] was Active. Also, the GI50 in [11] was 1.35 µM; in data set [14], above 10 µM. Moreover, the RatioGI50 in data set [15] amounted to 2500. Also, the inhibition entry in [16] is “Active”. The Ratio IC50 in [20] was 359; in data set [21], 753; in data set [22], above 1000.
